Results published in patent US20130190263A1 (LABORATORIO DE DIAGNOSTICO GAM, S.A., priority 2010, published 2013).
Converted amounts (≈) assume the structure as drawn.

Assays:
[1] = test system: cell cultures; conditions: cited from earlier work
[2] = test system: ISA virus; assay: Inhibition assay of the replicative cycle of ISAV in SHK-1 cells (real-time RT-PCR of supernatant); assay type: cell-based
[3] = test system: SHK-1 cells; conditions: Atlantic salmon, 3 days
[4] = 48 hours
[5] = Degradation when autoclaved at 121° C., 15 psi, 25% relative humidity; assay type: physicochemical
[6] = test system: VHSV virus (Viral Hemorrhagic Septicemia Virus); conditions: EPC cells, cited from earlier work
[7] = test system: SHK-1 cells; assay: Cytotoxicity: cell viability of SHK-1 cells (propidium iodide cytometry); conditions: relative to effective concentration
[8] = test system: ISA virus; assay: Example 1: determination of viral load in heart samples (real-time RT-PCR, TCID50); conditions: for viral load in infected fish (intraperitoneal): FIG. 9
[9] = test system: IPNV; conditions: solution in the tank, exposure once during two hours; cited from earlier work
[10] = Example 1: toxicity in healthy uninfected fish given the highest dose (tank C2)
[11] = test system: RNA viruses; conditions: in general, in vitro; read-out: EC50 values (effective concentration 50%); cited from earlier work
[12] = test system: ISA virus; assay: Example 1: necropsies analysis of infected treated fish; assay type: in vivo, Salmo salar; conditions: infected fish of tanks T1 and T2; FIGS. 14 and 15
Source text: The necropsy of the fish in the assay of controlled environment was made through external and internal clinical analysis, with registration of morphometric parameters, description and registration of pathological features (necropsy itself), sampling of internal organs (heart, kidney, spleen and gills) in ethanol and RNA later, with counter samples (i.e. duplication of the samples of the organs same), along with the sample of muscle locket with skin to be used afterwards in analysis of deficiency (presence of the Antiviral in the muscle).
The fish were subjected to necropsy process mostly within 24 hours post sampling.
At the end of the assay all fish were euthanized and necropsied.

[13] = test system: ISA virus; assay: Example 1: hematocrit of ISAV-infected treated fish; assay type: in vivo, Salmo salar; conditions: live fish

NC(=O)c1ncn([C@@H]2O[C@H](CO)[C@@H](O)[C@H]2O)n1 [ribavirin, 1-beta-D-ribofuranosyl-1H-1,2,4-triazole-3-carboxamide]
CC50 [1]: 100 µg/mL (≈ 409 µM)
EC50 ([2]; 72 h, read-out: concentration which inhibits 50% of ISA virus replication (EC50)): ~0.4 µg/mL (≈ 1.64 µM)
concentration that produces 50% of cell toxicity (CC50) [3]: > 400000 µg/mL
stability of the aqueous solution [4]: ≤ 48 h
% Antiviral ([5]; 5 minutes in autoclave): 97.2%
% Antiviral ([5]; 10 minutes in autoclave): 91.9%
% Antiviral ([5]; 20 minutes drying + 30 minutes in autoclave): 99.5%
% Antiviral ([5]; 30 minutes in autoclave): 90.3%
RNA inhibition ([6]; 25 μg/ml added at 0 hours post infection, at 10 hours post infection): 99.8%
inhibition of the virus ([6]; concentrations of 5, 10 and 25 μg/ml): strong inhibition
no cytotoxicity in concentrations times higher than the actual [7]: up to 10^7 times
viral load in dead fish ([8]; highest dose (T1) compared with T2 and C3, FIG. 8): significantly lower
viral load in infected fish (intraperitoneal) ([8]; highest dose (T1)): lower
viral load in infected fish (intraperitoneal) ([8]; lowest dose (T2) versus untreated (C3)): practically the same
average viral load (total) ([8]; tanks T1 and T2 versus C3, FIG. 6): smaller than the uninfected fish
decreased rate of dead fish [9]: about 5%
signs of anemia ([10]; healthy fish receiving a high dose (C2)): no signs of developing anemia
hematocrit ([10]; tank C2, healthy, dose of 1600 μg/mL): 54%
EC50 [11]: ≥ 1000 nM
necropsy findings [12]: mild inflammatory signs
hematocrit ([13]; tank T1, infected, dose of 800 μg/mL): ~45%
hematocrit ([13]; tank T2, infected, dose of 400 μg/mL): ~45%

CCOC(=O)C1=C[C@@H](OC(CC)CC)[C@H](NC(C)=O)[C@@H](N)C1 [oseltamivir]
inhibition of the replication of ISA virus ([2]; concentrations as high as 300 μg/mL, SHK-1 cells, 3 days post-infection, FIG. 1): no more than 60%

O=C(O)C1=C[C@@H](O)[C@@H](O)[C@H](O)C1 [shikimic acid]
viral replication inhibition ([2]; up to concentrations of 300 μg/ml, FIG. 2): no viral replication inhibition
